Assay: Biodistribution of radiolabelled compounds in a Lewis Lung mouse Carcinoma model
Type: in vivo
Conditions: for % ID/g kidney / % ID/g liver: tail vein injection of radiolabelled compound, excretion profile monitored at 5, 30, 60 and 120 minutes (time point not given)
Procedure: Biodistribution studies were carried out in a Lewis Lung mouse Carcinoma model as described in Bae et al, Drugs Exp Clin Res, 2003; 29 (1): 15-23. Following tail vein injection of the compounds, e the excretion profile was monitored at 5, 30, 60 and 120 minutes.

| SMILES | % ID/g kidney [% ID/g] | % ID/g liver [% ID/g] | excretion route / biodistribution in comparison to compounds 2 and 3 (tail vein injection, conclusion from Table 1) |
| --- | --- | --- | --- |
| O=C(CCN(C1(C(=O)NO)CCCC1)S(=O)(=O)c1ccc(Oc2ccc(F)cc2)cc1)NCCc1ccc(O)c(I)c1 [Compound 2] | 7 | 71 | – |
| NC(=O)C(Cc1ccc(O)c(I)c1)NC(=O)OC(=O)NCCOCCOCCOCCNC(=O)CCN(C1(C(=O)NO)CCCC1)S(=O)(=O)c1ccc(Oc2ccc(F)cc2)cc1 (stereo not shown) [Compound 3] | 20 | 61 | – |
| NC(=O)C(Cc1ccc(O)c(I)c1)NC(=O)CCOCCOCCOCCOCCOCCOCCOCCOCCOCCOCCOCCOCCNC(=O)CCOCCOCCOCCOCCOCCOCCOCCOCCOCCOCCOCCOCCNC(=O)CCN(C1(C(=O)NO)CCCC1)S(=O)(=O)c1ccc(Oc2ccc(F)cc2)cc1 (stereo not shown) [Compound 4] | 70 | 20 | preferably excreted via the renal system |
